Literature values as cited in patent publication US6342488B1, “Phosphonorisperidone and sulforisperidone compositions and methods” (priority 1998, dated 2002).

Details: condition associated with torsades de pointes

Row | Compound | prolongation of QT interval
1 | Cc1nc2n(c(=O)c1CCN1CCC(c3noc4cc(F)ccc34)CC1)CCCC2O (centres unmarked) [hydroxyrisperidone, 9-hydroxyrisperidone] | implicated in a prolongation of QT interval
2 | Cc1nc2n(c(=O)c1CCN1CCC(c3noc4cc(F)ccc34)CC1)CCCC2 [risperidone, Risperidone] | implicated in a prolongation of QT interval
